Measured values reported in patent US5556744A, “Methods and compositions for diagnosing and treating certain HIV infected patients” (The Trustees of the University of Pennsylvania, priority 1994, dated 1996).

Experiments:
[1] = test system: maternal HIV+ sera (antibodies); assay: RIA / ELISA binding of maternal HIV+ sera to gp120 and gp41 peptides (Example 3); set-up: species or system human; conditions: for Number of maternal sera binding to peptide: 20 maternal sera; for Binding of maternal sera to peptide (in words): Example 3; for Number of binding maternal sera from the non-transmission group: non-transmission group (13 sera); for Number of binding maternal sera from the transmission group: vertical transmission group (7 sera)
Procedure, shortened: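 Maternal sera, diluted 1:50 and 1:500, were bound overnight at 4°C to peptides immobilized at 10 μg/ml (pH 9.6 carbonate) and blocked with 1% BSA. Read-out was ¹²⁵I-labelled anti-human IgG counts or HRP-TMB OD450. Signal with peptide minus without was expressed relative to seronegative serum.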

[2] = test system: maternal sera (antibodies); assay: ELISA peptide-binding of maternal sera (Example 6); set-up: species or system human
Procedure, shortened: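 HIV-1 envelope peptides averaging 16 amino acids, covering external and transmembrane glycoprotein, were probed by ELISA. Third-trimester maternal sera, classed as transmitter or non-transmitter by child diagnosis, were each run on at least 40 peptides. Values give percent of sera binding a peptide.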

[3] = test system: HIV-1; conditions: cited from earlier work
[4] = Serum No. 1, Non-Transmission Group
[5] = Serum No. 2, Non-Transmission Group
[6] = Serum No. 3, Non-Transmission Group
[7] = Serum No. 4, Transmission Group
[8] = Serum No. 5, Transmission Group
[9] = Serum No. 6, Non-Transmission Group
[10] = Serum No. 7, Non-Transmission Group
[11] = Serum No. 8, Non-Transmission Group
[12] = Serum No. 9, Non-Transmission Group
[13] = Serum No. 10, Transmission Group
[14] = Serum No. 11, Non-Transmission Group
[15] = Serum No. 12, Non-Transmission Group
[16] = Serum No. 13, Transmission Group
[17] = Serum No. 14, Transmission Group
[18] = Serum No. 15, Transmission Group
[19] = Serum No. 16, Non-Transmission Group
[20] = Serum No. 17, Non-Transmission Group
[21] = Serum No. 18, Non-Transmission Group
[22] = Serum No. 19, Transmission Group
[23] = Serum No. 20, Non-Transmission Group

Sequence | Number of maternal sera binding to peptide [1] | Binding of maternal sera to peptide (in words) [1] | Binding of maternal HIV+ serum to peptide (sera/NHS ratio) [1, 4] | Binding of maternal HIV+ serum to peptide (sera/NHS ratio) [1, 5] | Binding of maternal HIV+ serum to peptide (sera/NHS ratio) [1, 6] | Binding of maternal HIV+ serum to peptide (sera/NHS ratio) [1, 7] | Binding of maternal HIV+ serum to peptide (sera/NHS ratio) [1, 8] | Binding of maternal HIV+ serum to peptide (sera/NHS ratio) [1, 9] | Binding of maternal HIV+ serum to peptide (sera/NHS ratio) [1, 10] | Binding of maternal HIV+ serum to peptide (sera/NHS ratio) [1, 11] | Binding of maternal HIV+ serum to peptide (sera/NHS ratio) [1, 12] | Binding of maternal HIV+ serum to peptide (sera/NHS ratio) [1, 13] | Binding of maternal HIV+ serum to peptide (sera/NHS ratio) [1, 14] | Binding of maternal HIV+ serum to peptide (sera/NHS ratio) [1, 15] | Binding of maternal HIV+ serum to peptide (sera/NHS ratio) [1, 16] | Binding of maternal HIV+ serum to peptide (sera/NHS ratio) [1, 17] | Binding of maternal HIV+ serum to peptide (sera/NHS ratio) [1, 18] | Binding of maternal HIV+ serum to peptide (sera/NHS ratio) [1, 19] | Binding of maternal HIV+ serum to peptide (sera/NHS ratio) [1, 20] | Binding of maternal HIV+ serum to peptide (sera/NHS ratio) [1, 21] | further results
CFRPGGGDMRDNWREL [Peptide 466] | three | very strong binding | - (specific OD450 or cpm of sera sample binding to peptide divided by the specific OD450 or cpm of NHS sample binding to peptide, which value is less than 2) | - (specific OD450 or cpm of sera sample binding to peptide divided by the specific OD450 or cpm of NHS sample binding to peptide, which value is less than 2) | - (specific OD450 or cpm of sera sample binding to peptide divided by the specific OD450 or cpm of NHS sample binding to peptide, which value is less than 2) | - (specific OD450 or cpm of sera sample binding to peptide divided by the specific OD450 or cpm of NHS sample binding to peptide, which value is less than 2) | - (specific OD450 or cpm of sera sample binding to peptide divided by the specific OD450 or cpm of NHS sample binding to peptide, which value is less than 2) | + (which value is between 2 to 3) | - (specific OD450 or cpm of sera sample binding to peptide divided by the specific OD450 or cpm of NHS sample binding to peptide, which value is less than 2) | - (specific OD450 or cpm of sera sample binding to peptide divided by the specific OD450 or cpm of NHS sample binding to peptide, which value is less than 2) | ++ (which value is greater than 3) | - (specific OD450 or cpm of sera sample binding to peptide divided by the specific OD450 or cpm of NHS sample binding to peptide, which value is less than 2) | - (specific OD450 or cpm of sera sample binding to peptide divided by the specific OD450 or cpm of NHS sample binding to peptide, which value is less than 2) | - (specific OD450 or cpm of sera sample binding to peptide divided by the specific OD450 or cpm of NHS sample binding to peptide, which value is less than 2) | - (specific OD450 or cpm of sera sample binding to peptide divided by the specific OD450 or cpm of NHS sample binding to peptide, which value is less than 2) | - (specific OD450 or cpm of sera sample binding to peptide divided by the specific OD450 or cpm of NHS sample binding to peptide, which value is less than 2) | - (specific OD450 or cpm of sera sample binding to peptide divided by the specific OD450 or cpm of NHS sample binding to peptide, which value is less than 2) | - (specific OD450 or cpm of sera sample binding to peptide divided by the specific OD450 or cpm of NHS sample binding to peptide, which value is less than 2) | - (specific OD450 or cpm of sera sample binding to peptide divided by the specific OD450 or cpm of NHS sample binding to peptide, which value is less than 2) | + (which value is between 2 to 3) | Binding of maternal HIV+ serum to peptide (sera/NHS ratio) [1, 22]: - (specific OD450 or cpm of sera sample binding to peptide divided by the specific OD450 or cpm of NHS sample binding to peptide, which value is less than 2); Binding of maternal HIV+ serum to peptide (sera/NHS ratio) [1, 23]: - (specific OD450 or cpm of sera sample binding to peptide divided by the specific OD450 or cpm of NHS sample binding to peptide, which value is less than 2); Percent of the maternal serum samples that bound to the peptide ([1]; all 20 samples): 15%; Number of binding maternal sera from the non-transmission group [1]: three; Number of binding maternal sera from the transmission group [1]: Zero; Number of Non-Transmitters which bound to peptide ([2]; Non-Transmitters, N = 12): 0; Percent of Non-Transmitters which bound to peptide ([2]; Non-Transmitters, N = 12): 0%; Number of Transmitters which bound to peptide ([2]; Transmitters, N = 4): 0; Percent of Transmitters which bound to peptide ([2]; Transmitters, N = 4): 0%; Neutralizing activity of antisera generated to the peptide ([3]; antisera (animals)): exhibit neutralizing activity; Antisyncytial and neutralizing activities elicited by the peptide ([3]; in words, Example 5): can elicit both antisyncytial and neutralizing activities
TLPCASDAKAYDTEV [Peptide 93] | six | Several maternal serum samples had reactivity | ++ (which value is greater than 3) | - (specific OD450 or cpm of sera sample binding to peptide divided by the specific OD450 or cpm of NHS sample binding to peptide, which value is less than 2) | - (specific OD450 or cpm of sera sample binding to peptide divided by the specific OD450 or cpm of NHS sample binding to peptide, which value is less than 2) | ++ (which value is greater than 3) | - (specific OD450 or cpm of sera sample binding to peptide divided by the specific OD450 or cpm of NHS sample binding to peptide, which value is less than 2) | + (which value is between 2 to 3) | ++ (which value is greater than 3) | + (which value is between 2 to 3) | - (specific OD450 or cpm of sera sample binding to peptide divided by the specific OD450 or cpm of NHS sample binding to peptide, which value is less than 2) | - (specific OD450 or cpm of sera sample binding to peptide divided by the specific OD450 or cpm of NHS sample binding to peptide, which value is less than 2) | - (specific OD450 or cpm of sera sample binding to peptide divided by the specific OD450 or cpm of NHS sample binding to peptide, which value is less than 2) | - (specific OD450 or cpm of sera sample binding to peptide divided by the specific OD450 or cpm of NHS sample binding to peptide, which value is less than 2) | - (specific OD450 or cpm of sera sample binding to peptide divided by the specific OD450 or cpm of NHS sample binding to peptide, which value is less than 2) | - (specific OD450 or cpm of sera sample binding to peptide divided by the specific OD450 or cpm of NHS sample binding to peptide, which value is less than 2) | - (specific OD450 or cpm of sera sample binding to peptide divided by the specific OD450 or cpm of NHS sample binding to peptide, which value is less than 2) | + (which value is between 2 to 3) | - (specific OD450 or cpm of sera sample binding to peptide divided by the specific OD450 or cpm of NHS sample binding to peptide, which value is less than 2) | - (specific OD450 or cpm of sera sample binding to peptide divided by the specific OD450 or cpm of NHS sample binding to peptide, which value is less than 2) | Binding of maternal HIV+ serum to peptide (sera/NHS ratio) [1, 22]: - (specific OD450 or cpm of sera sample binding to peptide divided by the specific OD450 or cpm of NHS sample binding to peptide, which value is less than 2); Binding of maternal HIV+ serum to peptide (sera/NHS ratio) [1, 23]: - (specific OD450 or cpm of sera sample binding to peptide divided by the specific OD450 or cpm of NHS sample binding to peptide, which value is less than 2); Number of binding maternal sera from the non-transmission group [1]: 5; Percent of binding maternal sera from the non-transmission group ([1]; of the sera which bound): 83%; Percent of binding maternal sera from the transmission group ([1]; of the sera which bound): 17%; Number of binding maternal sera from the transmission group [1]: 1
